A short description of series [1]: Tests of stability towards UV radiation: water-in-oil preparation on a quartz slide, UVA absorbance monitored under solar irradiation. The class given is physicochemical. As to conditions: for Variation in the absorbance at 356 nm: water-in-oil preparation on quartz slide; for decrease in UVA absorbance: preparation with 1% by mass of screening agents; for decrease of the absorbance at 356 nm: mean UV flux 4 mW/cm^2; for photostability compared with Parsol 1789: solar irradiation of preparations. The source says: By way of example, the changes under irradiation of a base preparation (water-in-oil emulsion) containing the compounds obtained in the above examples, i.e. compound C10 and compound O10, are compared with that of the same preparation containing Parsol 1789 (mass % equivalent for each screening agent).
By way of example, the chosen preparations may be composed as follows:
Glycasil L 0.19%, butyl paraben 0.3%, beeswax 4%, PEG-30 dipolyhydroxystearate 3%, dicapryl carbonate 10%, polyglyceryl-3-diisostearate 1.5%, water 78.64%, xanthan gum 1%, Na2EDTA 0.2%, NaCI 1%; methyl paraben 0.17%
To this common base is added, depending on the case, the compounds C10 or O10 or Parsol 1789 in equivalent mass %. 15 to 20 mg of these preparations are spread onto a quartz slide and the UVA absorbance of the slide is monitored over time under solar irradiation (in the month of June at 43° latitude north between 13.00 h and 16.00 h, mean flux of the solar UV radiation: 4 mW/cm^2, Oriel 70380 UV Radiometer—response between 280 nm and 400 nm with a maximum at 370 nm)). The absorbance at 356 nm of the plate with Parsol 1789 decreases by 51% in 1 hour and by 73% in 2 hours. In the same time, the plates that received compound O10 have an absorbance that increases by 16% in 1 hour and 19% in 2 hours. […]

For series [2] the following is noted: background statement on the reference screening agent; cited from earlier work.
Series [3] is described as follows: UV absorption (absorption maximum, molar extinction coefficient) in solution. In kind it is physicochemical. The source says:
As an illustration of these ultraviolet-absorbing capacities, measurements were taken for two dibenzoylmethane derivatives according to the invention: • for a compound of formula (I) in which R1, R′1, R2, R′2, R3, R′3, R4, R′4 and R′5 each represent a hydrogen atom and R5 represents a saturated linear acyclic carbon-based chain containing 10 carbon atoms, the absorption maximum is (in solution in acetonitrile) at 263 nm with a molar extinction coefficient of 20 000 I.cm^−1.mol^−1. This compound will be referred to hereinbelow as compound C10; • for a compound of formula (I) in which R1, R′1, R2, R′2, R3, R′3, R4, R′4 and R5 each represent a hydrogen atom and R′5 represents a saturated linear acyclic carbon-based chain containing 10 carbon atoms, the absorption maximum (in solution in acetonitrile) is at 302 nm with a molar extinction coefficient of 17 000 I.cm^−1.mol^−1.
This is likewise the case for compound C10. Furthermore, in organized medium, these two compounds, subjected to ultraviolet radiation, undergo a shift of their maximum absorbance wavelength from UVB to UVA, thus causing the same effect as organization of the system. As a result, the maximum shift of the absorption bands towards UVA is obtained by placing these compounds in organized medium under irradiation, as is the case for an antisun cosmetic preparation under the normal conditions of its use. Irradiation of the preparation amplifies the phenomenon induced by the medium in which the compounds are present. There are therefore two screening molecules present, the absorbing power of which appears in its entirety only when they are subjected to ultraviolet exposure, in an organized medium. The protection capacity of a preparation containing them should thus increase during exposure, rather than decrease, which is the case for preparations containing Parsol 1789 as sole UV-screening agent. This increase in the absorbance at the start of exposure makes it possible to maintain a maximum level of protection for longer.
The NMR spectra were acquired using a Bruker ARX 400 MHz machine. […]

In the case of `COc1ccc(C(=O)CC(=O)c2ccc(C(C)(C)C)cc2)cc1` [Parsol 1789, 4-tert-butyl-4′-methoxydibenzoylmethane, reference compound], the “Variation in the absorbance at 356 nm” value in series [1] (Irradiation 1 hour solar UV) was −51%; in series [1] (Irradiation 2 hours solar UV) it was −73%. Also, the “decrease in UVA absorbance” value came to 73% in series [1] (after 2 hours solar irradiation) and 51% in series [1] (in 1 hour solar irradiation). Also, the “decrease of the absorbance at 356 nm” value in series [1] (in 1 hour solar irradiation) was found to be 51%; in series [1] (in 2 hours solar irradiation), 73%. The “maximum absorption efficacy (wavelength)” value in series [2] is on record as “about 340 nm”.
With `CCCCCCCCCCO/C(=C\C(=O)c1ccc(OC)cc1)c1ccc(C(C)(C)C)cc1` [compound O10, 3-(4-tert-butylphenyl)-3-decanoxy-1-(4-methoxy-phenyl) prop-2-ene-1-one], the “photostability compared with Parsol 1789” value in series [1] is “much more photostable than Parsol 1789”.
`CCCCCCCCCCC(C(=O)c1ccc(OC)cc1)C(=O)c1ccc(C(C)(C)C)cc1` (centres unmarked) [compound C10, 3-(4-tert-butylphenyl)-2-decanyl-1-(4-methoxyphenyl)propane-1,3-dione] showed an absorption maximum in series [3] (in solution in acetonitrile) of 263 nm. Also, the molar extinction coefficient in series [3] (in solution in acetonitrile, at the absorption maximum) is 20 000 I.cm^−1.mol^−1. Also, the “absorption maximum in the UVA range (solvatochromy)” value in series [3] (organized solvents, e.g. micellar solutions of sodium dodecyl sulfate) was “about 360 nm”. Further, the “absorbance after 2 hours of exposure to sunlight versus initial absorbance” value in series [1] (2 hours of solar irradiation, compared with before irradiation) is on record as “remains markedly higher than its initial absorbance”. For the same molecule, the “Variation in the absorbance at 356 nm” value in series [1] (Irradiation 1 hour solar UV) is “+400%”; in series [1] (Irradiation 2 hours solar UV), “+264%”. For the same molecule, the “absorbance change during the first hour of exposure to sunlight” value in series [1] (first hour of solar irradiation) is on record as “increases greatly”. Moreover, the “decrease of the absorbance during the second hour” value in series [1] (relative to the maximum achieved after 1 hour of irradiation) came out at 27%. In series [1], the “photostability compared with Parsol 1789” value is on record as “much more photostable than Parsol 1789”.

The record behind these values is patent publication US20070025930A1, “Dibenzoilmethane derivative compounds, the use thereof in the form of photoactivable solar filters and cosmetic compositions containing said compounds” (UNIVERSITE PAUL SABATIER TOULOUSE 3, priority 2003, published 2007).
